Assay results from patent publication US20220175766A1, “COMPOSITIONS AND METHODS OF TREATMENT” (GB004, Inc., priority 2019, published 2022).
≈ marks a conversion by molar mass, not a printed value. Like-named read-outs stand apart in the source and are kept apart here.

Columns and labels:
HIF-1α = assay: Phase 1a multiple ascending dose study: proportion of HIF-1α positive cells in colonic biopsies (immunohistochemistry, manual assessment); type: in vivo, human; settings: for Proportion of HIF-1α Positive Cells, CFB (change from baseline), Mean / Proportion of HIF-1α Positive Cells, CFB (change from baseline), Median: baseline to Day 8
Method: Manual assessment of the proportion of HIF-1α positive cells was conducted in 10 regions of interest, selected in whole tissue sections. (Note, the study was amended to add this immunohistochemistry analysis; thus data is only available for cohorts 4 and 5 (120 mg and 60 mg), cohorts 1-3 lacked this type of biopsy).
Table 50 presents the proportions of HIF-1α positive cells evaluated at baseline and Day 8, and the change from baseline to Day 8 of the proportion of HIF-1α positive cells. The mean proportion of HIF-1α positive cells ranged from 1% to 80% across all experimental groups.

[1] = Biopharmaceutical Classification System (BCS) classification; type: physicochemical; settings: low solubility/dissolution rate and high permeability
Excerpt: Compound 1 can be classified as a BCS Class 2 compound (according to the Biopharmaceutical Classification System as defined by the “Guidance for Industry: Waiver of In Vivo Bioavailability and Bioequivalence studies for immediate release solid oral dosage forms based on a Biopharmaceutics Classification System”) which indicates it has a low solubility/dissolution rate and high permeability.

EPO or VEGF = assay: Phase 1a multiple dose tablet study (Example 26): EPO and VEGF change from baseline to Day 7; parameters: species or system human; settings: in vivo
[2] = Phase 1a single ascending dose study (oral solution): plasma pharmacokinetics; type: in vivo; settings: male, human; for AUC(0-t): read-out: AUClast, mean (SD); for Cmax: read-out: Cmax, mean (SD)
Method: Compound 1 was administered as the HCl-salt (prepared analogously to Example 2.1).
Placebo dosing solutions were identical to active, except without Compound 1. […] Since HPβCD concentration remained constant, subjects in Cohort 5 received twice the amount of HPβCD relative to subjects in Cohorts 1 to 4. Dosing, including consumption of rinse water, was completed within 3 minutes, administered in the morning after an overnight fast, and maintained for up to 4 hours after dosing.
The secondary objective was to characterize the single-dose pharmacokinetic (PK) parameters of Compound 1 after ascending doses.
Blood samples were collected at baseline, day 1 (0.5, 1, 2, 3, 4, 6, 8, 12, 16, 24 hours post dose), day 2 (30, 36 and 48 hours post dose) and day 8 follow-up visit. Analysis of plasma samples was performed using a validated Liquid Chromatography—Mass Spectrometry and Liquid Chromatography—Tandem Mass Spectrometry (LC-MS/MS) method.

[3] = Compound 1 pH-solubility at 22° C.; type: physicochemical; settings: for solubility: aqueous buffer, thermodynamic from solid
Excerpt: The solubility of Compound 1 at various pH's was investigated.

[4] = test system: hypoxia inducible factor (HIF)-inducible gene expression; assay: Phase 1a multiple ascending dose study: HIF-inducible gene expression in colonic mucosal biopsy samples; type: in vivo, human
Method: Colonic mucosal biopsy samples were also assessed for hypoxia inducible factor (HIF)-inducible gene expression. For Tier 1 association tests, two significant gene were detected (HMOX1, CA9).

EPO and VEGF = assay: Phase 1a multiple ascending dose study: circulating EPO and VEGF levels in serum; type: in vivo, human; settings: serum samples
[5] = Phase 1a multiple ascending dose study: Compound 1 concentration in colon tissue (colonic mucosal biopsy); type: in vivo, human
Excerpt: Colonic mucosal biopsy samples were acquired.

[6] = Phase 1a multiple ascending dose study: Compound 1 in fecal samples; type: in vivo, human; settings: for dose excreted: human, feces, oral, read-out: Mean recovery of Compound 1 in feces, range across cohorts
Method: Fecal samples were collected, when possible, over 24 hours (0-24 hours) post administration on Day 1 and Day 7; the absolute amount of Compound 1 measured (mg) is shown Table 48.

[7] = Pooled (60 mg and 120 mg), Baseline
[8] = Pooled (60 mg and 120 mg), Day 8
[9] = 20 mg, Cohort 1, 20 mg single oral dose (0.4 mg/mL, 50 mL)
[10] = 60 mg, Cohort 2, 60 mg single oral dose (1.2 mg/mL, 50 mL)
[11] = 120 mg, Cohort 3, 120 mg single oral dose (2.4 mg/mL, 50 mL)
[12] = 240 mg, Cohort 4, 240 mg single oral dose (4.8 mg/mL, 50 mL)
[13] = 240 mg, Cohort 5, 240 mg single oral dose (2.4 mg/mL, 100 mL)

CC(C)(C)OC(=O)N1CCN(Cc2ccn(Cc3ccc(Cl)cc3)c(=O)c2O)CC1 [Compound 1, tert-butyl 4-((1-(4-chlorobenzyl)-3-hydroxy-2-oxo-1,2-dihydropyridin-4-yl)methyl)piperazine-1-carboxylate]
Proportion of HIF-1α Positive Cells, Mean (HIF-1α; 60 mg, Baseline): 6.3%
Proportion of HIF-1α Positive Cells, Median (HIF-1α; 60 mg, Baseline): 5.8%
Proportion of HIF-1α Positive Cells, Mean (HIF-1α; 60 mg, Day 8): 44.5%
Proportion of HIF-1α Positive Cells, Median (HIF-1α; 60 mg, Day 8): 46.5%
Proportion of HIF-1α Positive Cells, CFB (change from baseline), Mean (HIF-1α; 60 mg): 38.3%
Proportion of HIF-1α Positive Cells, CFB (change from baseline), Median (HIF-1α; 60 mg): 38.0%
Proportion of HIF-1α Positive Cells, Mean (HIF-1α; 120 mg, Baseline): 12.0%
Proportion of HIF-1α Positive Cells, Median (HIF-1α; 120 mg, Baseline): 6.3%
Proportion of HIF-1α Positive Cells, Mean (HIF-1α; 120 mg, Day 8): 44.1%
Proportion of HIF-1α Positive Cells, Median (HIF-1α; 120 mg, Day 8): 45.3%
Proportion of HIF-1α Positive Cells, CFB (change from baseline), Mean (HIF-1α; 120 mg): 32.1%
Proportion of HIF-1α Positive Cells, CFB (change from baseline), Median (HIF-1α; 120 mg): 28.5%
Proportion of HIF-1α Positive Cells, Mean (HIF-1α; [7]): 9.1%
Proportion of HIF-1α Positive Cells, Median (HIF-1α; [7]): 5.8%
Proportion of HIF-1α Positive Cells, Mean (HIF-1α; [8]): 44.3%
Proportion of HIF-1α Positive Cells, Median (HIF-1α; [8]): 45.3%
Proportion of HIF-1α Positive Cells, CFB (change from baseline), Mean (HIF-1α; Pooled (60 mg and 120 mg)): 35.2%
Proportion of HIF-1α Positive Cells, CFB (change from baseline), Median (HIF-1α; Pooled (60 mg and 120 mg)): 29.0%
Increase from baseline to Day 8 in proportion of HIF-1α positive cells [mean±SD] (HIF-1α; combined group (Pooled; 120 mg and 60 mg cohorts)): 35.2+28.8
BCS classification [1]: BCS Class 2
Effects on EPO or VEGF from baseline to Day 7 compared to placebo (EPO or VEGF): no consistent or dose-related effects
Tmax [2, 9]: 30 min
AUC(0-t) [2, 9]: 10.7 ng·h/mL
Cmax [2, 9]: 2.06 ng/mL
Tmax [2, 10]: 30 min
AUC(0-t) [2, 10]: 14.2 ng·h/mL
Cmax [2, 10]: 7.71 ng/mL
Tmax [2, 11]: 30 min
AUC(0-t) [2, 11]: 32.3 ng·h/mL
Cmax [2, 11]: 12.4 ng/mL
Tmax [2, 12]: 30 min
AUC(0-t) [2, 12]: 41.3 ng·h/mL
Cmax [2, 12]: 25 ng/mL
Tmax [2, 13]: 30 min
AUC(0-t) [2, 13]: 79.5 ng·h/mL
Cmax [2, 13]: 30.7 ng/mL
Tmax ([2]; single oral solution dose, healthy male subjects): < 60 min
Tmax ([2]; single oral solution formulation dose): 30 min
solubility ([3]; TRIS buffer, pH 8 (TRIS 25 mM, l = 0.1), pH 8.0, 22° C.): 0.69 µg/mL (≈ 1.59 µM)
Solubility (in words) ([3]; above pH 4): practically insoluble
solubility ([3]; 0.1M NaOH, pH 12.6, 22° C.): 890 µg/mL (≈ 2050 µM)
Solubility (in words) ([3]; at pH 1): soluble
Solubility (in words) ([3]; at pH 6.8): totally insoluble
solubility ([3]; citrate buffer, pH 3 (Citrate 25 mM, l = 0.1), pH 2.9, 22° C.): 570 µg/mL (≈ 1310 µM)
solubility ([3]; citrate buffer, pH 4 (Citrate 25 mM, l = 0.1), pH 3.9, 22° C.): 94 µg/mL (≈ 217 µM)
solubility ([3]; citrate buffer, pH 5 (Citrate 25 mM, l = 0.1), pH 5.0, 22° C.): 9.8 µg/mL (≈ 22.6 µM)
solubility ([3]; glycine buffer, pH 10 (Glycine 25 mM, l = 0.1), pH 9.9, 22° C.): 9.9 µg/mL (≈ 22.8 µM)
solubility ([3]; phosphate buffer, pH 6.5 (Phosphate 25 mM, l = 0.1), pH 6.5, 22° C.): 1 µg/mL (≈ 2.3 µM)
Significant genes detected ([4]; Tier 1 association tests): HMOX1, CA9
Significant genes detected ([4]; Tier 2 analysis): NDRG1, LCN2, BNIP3, TFF3, AKR1C3, BIRC3, TMEM45A and HILPDA
Effects on circulating EPO and VEGF levels (EPO and VEGF): no Compound 1-related effects
Compound 1 Concentration in Colon Tissue, Median (Range) ([5]; Cohort 2, 120 mg): 10.75 (0-1150) ng/g
Compound 1 Concentration in Colon Tissue, Median (Range) ([5]; Cohort 3, 240 mg): 23.50 (0-301) ng/g
Compound 1 Concentration in Colon Tissue, Median (Range) ([5]; Cohort 4, 120 mg): 127.47 (0-3330) ng/g
Compound 1 Concentration in Colon Tissue, Median (Range) ([5]; Cohort 5, 60 mg): 102.30 (0-1360) ng/g
Compound 1 colon tissue levels (in words) ([5]; colonic mucosal biopsy samples): increase in a dose-dependent manner
Mean observed amount of Compound 1 in fecal samples ([6]; Cohort 1, 60 mg once daily, DAY 7, 0-24 hours): 22.0 mg
Mean observed amount of Compound 1 in fecal samples ([6]; Cohort 1, 60 mg, DAY 1, 0-24 hours): 11.8 mg
Mean observed amount of Compound 1 in fecal samples ([6]; Cohort 2, 120 mg once daily, DAY 7, 0-24 hours): 37.5 mg
Mean observed amount of Compound 1 in fecal samples ([6]; Cohort 2, 120 mg, DAY 1, 0-24 hours): 5.9 mg
Mean observed amount of Compound 1 in fecal samples ([6]; Cohort 3, 240 mg once daily, DAY 7, 0-24 hours): 125.3 mg
Mean observed amount of Compound 1 in fecal samples ([6]; Cohort 3, 240 mg, DAY 1, 0-24 hours): 46.5 mg
Mean observed amount of Compound 1 in fecal samples ([6]; Cohort 4, 120 mg once daily, DAY 7, 0-24 hours): 33.9 mg
Mean observed amount of Compound 1 in fecal samples ([6]; Cohort 4, 120 mg, DAY 1, 0-24 hours): 14.4 mg
Mean observed amount of Compound 1 in fecal samples ([6]; Cohort 5, 60 mg once daily, DAY 7, 0-24 hours): 11.6 mg
Mean observed amount of Compound 1 in fecal samples ([6]; Cohort 5, 60 mg, DAY 1, 0-24 hours): 13.0 mg
Mean fecal concentrations of Compound 1, range across cohorts ([6]; Day 1): 40 to 225 µg/g
Mean fecal concentrations of Compound 1, range across cohorts ([6]; Day 7): 95 to 506 µg/g
dose excreted ([6]; Day 1): 5 to 22%
dose excreted ([6]; Day 7): 19 to 52%
